Source: patent US7838672B2, “Use of fused ring-1,2,4-benzotriazine derivatives as herbicides or plant growth regulators for the control of undesired plants or vegetation, compounds and compositions thereof, and processes for their preparation” (Bayer CropScience GmbH, priority 2003, dated 2010)
One block for each compound: values may come before it.

Assays:
[1] = test system: Galium aparine, Abutilon theophrasti, Alopecurus myosuroides, Avena fatua, Ipomoea purpurea, Echinchloa crus-galli, Solanum nigrum and Cyperus iria; assay: Pre-emergence effect on weeds (greenhouse pot test, applied to the covering soil); assay type: in vivo; settings: application rate of 3 kg or less of active ingredient per hectare, assessed three to four weeks after application vs untreated control
Procedure: Seeds of monocotyledonous and dicotyledonous weeds and/or crops were placed in sandy loam in wood-fibre-pots and covered with soil. The compounds formulated as wettable powders or emulsifiable concentrates were dissolved and diluted with water containing adjuvant and then applied to the surface of the covering soil at different dose rates at an application volume of 600 or 800 litres water per ha. After the treatment, the pots were placed in the greenhouse and kept under good growth conditions for the plants. The herbicidal effect was assessed visually as a percentage figure in comparison with the untreated control three to four weeks after application. 100% Efficacy refers to the complete damage of the assessed plants, 0% efficacy refers to the appearance of the untreated control.

[2] = test system: Galium aparine, Abutilon theophrasti, Alopecurus myosuroides, Avena fatua, Ipomoea purpurea, Echinchloa crus-galli, Solanum nigrum and Cyperus iria; assay: Post-emergence effect on weeds (greenhouse pot test, applied over the top of plants at one-leaf-stage); assay type: in vivo; settings: application rate of 3 kg or less of active ingredient per hectare, treated at one-leaf-stage, assessed three to four weeks after application vs untreated control
Procedure: Seeds of monocotyledonous and dicotyledonous weeds and/or crops were placed in sandy loam in wood-fibre-pots covered with soil and grown under good greenhouse conditions. The plants were treated at the one-leaf-stage two to three weeks after sowing. The compounds, formulated as wettable powders or emulsifiable concentrates were dissolved and diluted with water containing adjuvant and then applied over the top of the plants at different dose rates at an application volume of 600 or 800 litres water per ha. After the treatment, the pots were placed in the greenhouse and kept under good growth conditions for the plants. The herbicidal effect was assessed visually as a percentage figure in comparison with the untreated control three to four weeks after application

- melting point: 259 to 261 °C
Structure (SMILES): c1ccc2c(c1)nnc1nncn12 [Compound 3, [1,2,4]triazolo[3,4-c][1,2,4]benzotriazine]
- pre-emergence control of harmful weed species (herbicidal effect assessed visually) [1]: very good pre-emergence control
- post-emergence control of the tested weed species (herbicidal effect assessed visually) [2]: very good post-emergence control

Structure (SMILES): [O-][n+]1nc2nncn2c2ccc(Br)cc21 [Compound 5, 7-bromo[1,2,4]triazolo[3,4-c][1,2,4]benzotriazine-5-oxide]
- pre-emergence control of harmful weed species (herbicidal effect assessed visually) [1]: very good pre-emergence control
- post-emergence control of the tested weed species (herbicidal effect assessed visually) [2]: very good post-emergence control

Structure (SMILES): c1ccc2c(c1)NNc1nncn1-2 [Compound 6, 4,5-dihydro[[1,2,4]triazolo[3,4-c][1,2,4]benzotriazine]
- pre-emergence control of harmful weed species (herbicidal effect assessed visually) [1]: very good pre-emergence control
- post-emergence control of the tested weed species (herbicidal effect assessed visually) [2]: very good post-emergence control
